Assay results taken from PMC7002685, “Inhibition of vascular calcification by inositol phosphates derivatized with ethylene glycol oligomers” (Nature Communications, 2020).

What was measured:
[1] = system: Calcium Channel L-Type, Benzothiazepine; experiment: Off-target 214510; format: binding, Rat; conditions: 10 µM
Description: (§1) The potential off-target activity of 10 µM (OEG2)2-IP4 was assessed against a panel of 87 enzymes, receptors, or ion channels that are used in standard safety pharmacology screens.
(§2) 3.2. Off-target screening assay
(§3) The experiments were conducted by a contract research organization (Eurofins Panlabs Discovery Services Taiwan, Ltd.) and details on the respective assays can be retrieved via the catalog number provided in Supplementary Table 11 from the company’s webpage
(§4) (https://www.eurofinsdiscoveryservices.com/). […]
(§5) At sacrifice the left tibia of animals of the rat model with dietary adenine/high-phosphate-induced uremia and VC was collected, fixed with 70% v/v EtOH and embedded in methyl methacrylate. The trabecular bone compartment is known to be the most metabolic active i.e. actively re-structured bone compartment in CKD. Therefore, histomorphometric and micro-computed tomography (µCT) analysis of bone was performed on the trabecular compartment. Tibial sections were Goldner-stained for histomorphometric analysis of the proximal metaphysis using the AxioVision Release 4.5 software, as […]
(§6) described previously5. […]

[2] = molecular target: T1, ATPase, Na+/K+, Heart, Pig (Sus scrofa, UniProt P05024); experiment: Off-target 107710; format: biochemical
T1 construct: purchased Eurofins Panlabs Discovery Services Taiwan, Ltd
Description: as §1, §2
(§7) The experiments were conducted by a contract research organization (Eurofins Panlabs Discovery
(§8) Services Taiwan, Ltd.) and details on the respective assays can be retrieved via the catalog number
(§9) provided in Supplementary Table 11 from the company’s webpage
as §4

Muscarinic M2 = molecular target: T2, Muscarinic M2 (Homo sapiens, UniProt P08172); experiment: Off-target 252710; format: binding
T2 construct: purchased Eurofins Panlabs Discovery Services Taiwan, Ltd
Description: as §1, §2, §3, §4, §5, §6

Dopamine D2L = molecular target: T3, Dopamine D2L (Homo sapiens, UniProt P14416); experiment: Off-target 219500 (D2L); format: binding
T3 construct: purchased Eurofins Panlabs Discovery Services Taiwan, Ltd
Description: as §1, §2, §7, §8, §9, §4

[3] = Compound stress test in D2O at 37 °C (NMR); format: physicochemical; conditions: up to 6 weeks
Description: For the compound stress test, 20.25 mg (OEG2)2-IP4 in 700 µL D2O was incubated at 37 °C and stability was monitored by ^1H-NMR and ^31P-NMR spectroscopies for up to 6 weeks.
Monitoring the stability of (OEG2)2-IP4 in aqueous solution at 37 °C for up to 6 weeks by 1H-
Monitoring the stability of (OEG2)2-IP4 in aqueous solution at 37 °C for up to 6 weeks by 31P- […]

Glutamate, NMDA, Agonism = experiment: Off-target 232810; format: binding, Rat; conditions: 10 µM
Description: as §1, §2, §3, §4, §5, §6

Cannabinoid CB2 = molecular target: T4, Cannabinoid CB2 (Homo sapiens, UniProt P34972); experiment: Off-target 217100; format: binding
T4 construct: purchased Eurofins Panlabs Discovery Services Taiwan, Ltd
Description: as §1, §2, §3, §4, §5, §6

[4] = molecular target: T5, (Homo sapiens, UniProt P25100); experiment: Off-target 203400; format: binding
T5 construct: purchased Eurofins Panlabs Discovery Services Taiwan, Ltd
Description: as §1, §2, §3, §4, §5, §6

[5] = Protein binding in human plasma (ultrafiltration); format: in vitro ADME
Description: For many drugs, the PK profile depends on the patient’s renal status. Therefore, (OEG2)2-IP4 PK profile was also determined in an adenine and high-phosphate-diet-induced rat model of uremia, in which the compound was administered after serum creatinine levels had increased by fourfold relative to baseline (Fig. 4g, h). […] Similar results were observed following s.c. administration (Supplementary Table 5).
as §2
The experiments were conducted by a contract research organization (Eurofins Panlabs Discovery Services Taiwan, Ltd.) and details on the respective assays can be retrieved via the catalog number provided in Supplementary Table 11 from the company’s webpage […]
Concentrations of unbound (OEG2)2-IP4 in ultrafiltrated fractions and total (OEG2)2-IP4 concentrations were measured using a calibration prepared in ultrafiltrated pooled plasma and non-ultrafiltrated pooled plasma, respectively and LC-MS/MS quantification as described in Methods 6.3.
At sacrifice the left tibia of animals of the rat model with dietary adenine/high-phosphate-induced uremia and VC was collected, fixed with 70% v/v EtOH and embedded in methyl methacrylate. […] The total bone area (as percentage of total tissue area), osteoid area (as percentage of total bone area), and mineralized bone area (as percentage of total tissue area) were calculated from the primary measurements. […]

[6] = molecular target: T6, Protein Tyrosine Kinase, Insulin Receptor (Homo sapiens, UniProt P06213); experiment: Off-target 174990; format: biochemical
T6 construct: purchased Eurofins Panlabs Discovery Services Taiwan, Ltd
Description: as §1, §2, §3, §4, §5, §6

[7] = molecular target: T7, (Rattus norvegicus, UniProt P15823); experiment: Off-target 203200; format: binding
T7 construct: purchased Eurofins Panlabs Discovery Services Taiwan, Ltd
Description: as §1, §2, §3, §4, §5, §6

[8] = molecular target: T8, Transporter, Norepinephrine (NET) (Homo sapiens, UniProt P23975); experiment: Off-target 204410; format: binding
T8 construct: purchased Eurofins Panlabs Discovery Services Taiwan, Ltd
Description: as §1, §2, §3, §4, §5, §6

T2 sequence (P08172 whole entry): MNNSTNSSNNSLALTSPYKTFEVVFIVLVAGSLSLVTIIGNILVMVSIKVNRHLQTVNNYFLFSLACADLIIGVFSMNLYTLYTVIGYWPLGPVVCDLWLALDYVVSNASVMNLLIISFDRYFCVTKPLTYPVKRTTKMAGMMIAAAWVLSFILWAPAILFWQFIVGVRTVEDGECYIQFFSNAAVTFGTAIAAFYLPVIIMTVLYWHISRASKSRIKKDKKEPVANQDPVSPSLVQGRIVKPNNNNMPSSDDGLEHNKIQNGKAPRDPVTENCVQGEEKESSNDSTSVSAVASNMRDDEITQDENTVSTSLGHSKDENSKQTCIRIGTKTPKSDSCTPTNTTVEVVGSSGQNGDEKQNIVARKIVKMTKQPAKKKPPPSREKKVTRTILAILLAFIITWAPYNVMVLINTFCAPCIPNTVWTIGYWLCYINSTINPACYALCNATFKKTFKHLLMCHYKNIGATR
T4 sequence (P34972 whole entry): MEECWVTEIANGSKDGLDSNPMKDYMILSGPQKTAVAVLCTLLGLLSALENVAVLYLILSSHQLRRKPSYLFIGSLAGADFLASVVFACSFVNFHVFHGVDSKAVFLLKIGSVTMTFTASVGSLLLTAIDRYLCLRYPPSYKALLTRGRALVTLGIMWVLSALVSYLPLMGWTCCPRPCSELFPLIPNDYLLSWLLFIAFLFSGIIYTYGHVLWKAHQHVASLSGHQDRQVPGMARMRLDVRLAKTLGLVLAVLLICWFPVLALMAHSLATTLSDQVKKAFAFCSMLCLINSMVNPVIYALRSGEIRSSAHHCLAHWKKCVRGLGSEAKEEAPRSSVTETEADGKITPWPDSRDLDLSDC
T8 sequence (P23975 whole entry): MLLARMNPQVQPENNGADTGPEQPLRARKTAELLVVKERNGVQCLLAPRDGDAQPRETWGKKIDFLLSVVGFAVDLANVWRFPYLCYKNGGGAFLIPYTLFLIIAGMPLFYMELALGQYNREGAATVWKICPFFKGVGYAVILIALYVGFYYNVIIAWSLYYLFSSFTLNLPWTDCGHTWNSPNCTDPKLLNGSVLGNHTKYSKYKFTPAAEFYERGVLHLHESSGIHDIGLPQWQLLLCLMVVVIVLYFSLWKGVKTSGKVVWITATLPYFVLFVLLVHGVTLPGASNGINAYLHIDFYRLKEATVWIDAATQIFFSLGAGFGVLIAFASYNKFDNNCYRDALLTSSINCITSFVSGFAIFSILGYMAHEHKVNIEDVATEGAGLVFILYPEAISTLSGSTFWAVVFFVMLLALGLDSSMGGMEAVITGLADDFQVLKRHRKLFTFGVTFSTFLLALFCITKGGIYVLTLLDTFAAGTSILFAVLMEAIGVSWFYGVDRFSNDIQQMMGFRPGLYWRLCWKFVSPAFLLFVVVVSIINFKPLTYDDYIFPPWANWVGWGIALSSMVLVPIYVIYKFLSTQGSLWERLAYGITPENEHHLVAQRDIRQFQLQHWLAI
T6 sequence (P06213 28-1382): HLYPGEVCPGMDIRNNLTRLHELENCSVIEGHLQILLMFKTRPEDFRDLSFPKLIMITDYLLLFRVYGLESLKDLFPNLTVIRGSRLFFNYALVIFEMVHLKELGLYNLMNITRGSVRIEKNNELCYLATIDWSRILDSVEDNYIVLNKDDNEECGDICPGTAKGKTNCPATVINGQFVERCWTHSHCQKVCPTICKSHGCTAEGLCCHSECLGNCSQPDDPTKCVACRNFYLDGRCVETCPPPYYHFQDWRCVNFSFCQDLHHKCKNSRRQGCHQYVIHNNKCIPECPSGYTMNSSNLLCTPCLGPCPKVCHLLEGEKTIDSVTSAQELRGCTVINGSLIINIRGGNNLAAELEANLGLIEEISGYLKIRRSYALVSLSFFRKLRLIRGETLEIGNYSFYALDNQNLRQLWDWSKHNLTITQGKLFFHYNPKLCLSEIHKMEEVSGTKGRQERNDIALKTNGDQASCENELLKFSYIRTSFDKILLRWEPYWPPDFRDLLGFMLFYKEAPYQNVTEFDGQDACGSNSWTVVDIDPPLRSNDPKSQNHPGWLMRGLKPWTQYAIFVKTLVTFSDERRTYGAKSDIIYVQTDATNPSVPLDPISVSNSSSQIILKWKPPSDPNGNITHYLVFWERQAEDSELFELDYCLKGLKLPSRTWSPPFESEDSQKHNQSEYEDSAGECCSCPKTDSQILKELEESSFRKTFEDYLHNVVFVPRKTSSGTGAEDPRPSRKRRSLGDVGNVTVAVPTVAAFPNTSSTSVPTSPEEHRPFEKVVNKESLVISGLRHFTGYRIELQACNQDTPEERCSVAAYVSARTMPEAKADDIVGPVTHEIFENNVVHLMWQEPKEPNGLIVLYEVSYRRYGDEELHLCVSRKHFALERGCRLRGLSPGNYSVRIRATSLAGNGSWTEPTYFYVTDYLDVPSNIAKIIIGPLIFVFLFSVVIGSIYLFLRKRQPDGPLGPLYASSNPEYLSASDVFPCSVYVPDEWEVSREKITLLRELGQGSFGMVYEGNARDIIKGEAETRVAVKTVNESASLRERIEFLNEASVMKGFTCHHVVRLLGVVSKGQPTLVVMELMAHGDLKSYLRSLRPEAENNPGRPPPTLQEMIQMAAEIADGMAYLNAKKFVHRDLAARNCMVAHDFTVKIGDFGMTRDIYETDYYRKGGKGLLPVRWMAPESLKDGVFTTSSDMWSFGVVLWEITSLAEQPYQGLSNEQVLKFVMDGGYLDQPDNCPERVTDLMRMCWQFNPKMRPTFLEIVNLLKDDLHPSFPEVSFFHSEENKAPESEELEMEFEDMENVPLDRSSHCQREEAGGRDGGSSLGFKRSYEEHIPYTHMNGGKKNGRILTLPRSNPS
T3 sequence (P14416 whole entry): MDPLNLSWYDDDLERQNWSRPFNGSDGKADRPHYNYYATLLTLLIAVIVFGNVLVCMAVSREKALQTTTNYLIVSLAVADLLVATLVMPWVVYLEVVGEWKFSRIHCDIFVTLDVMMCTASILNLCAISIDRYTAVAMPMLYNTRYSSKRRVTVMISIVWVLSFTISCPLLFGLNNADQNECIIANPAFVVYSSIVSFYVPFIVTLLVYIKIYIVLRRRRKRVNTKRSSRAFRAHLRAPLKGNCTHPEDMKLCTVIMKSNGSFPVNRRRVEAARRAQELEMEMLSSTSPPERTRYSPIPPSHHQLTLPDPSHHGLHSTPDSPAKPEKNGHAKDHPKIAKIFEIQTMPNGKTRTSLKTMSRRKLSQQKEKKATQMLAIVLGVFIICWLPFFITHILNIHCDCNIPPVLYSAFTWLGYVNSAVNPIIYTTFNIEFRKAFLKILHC
T7 sequence (P15823 whole entry): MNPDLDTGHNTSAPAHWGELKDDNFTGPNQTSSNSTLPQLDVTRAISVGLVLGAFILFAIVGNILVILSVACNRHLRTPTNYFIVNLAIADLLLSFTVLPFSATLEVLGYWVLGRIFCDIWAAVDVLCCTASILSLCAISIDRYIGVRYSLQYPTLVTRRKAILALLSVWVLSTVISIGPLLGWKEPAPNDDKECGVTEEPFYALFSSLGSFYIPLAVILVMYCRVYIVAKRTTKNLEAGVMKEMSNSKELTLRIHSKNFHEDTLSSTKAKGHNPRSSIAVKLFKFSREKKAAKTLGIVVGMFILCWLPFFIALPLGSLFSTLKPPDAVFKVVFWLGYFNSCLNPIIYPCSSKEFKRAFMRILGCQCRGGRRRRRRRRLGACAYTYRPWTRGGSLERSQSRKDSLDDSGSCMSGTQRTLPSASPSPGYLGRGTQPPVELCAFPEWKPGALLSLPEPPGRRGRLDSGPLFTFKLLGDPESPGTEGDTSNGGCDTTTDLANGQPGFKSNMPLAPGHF
T5 sequence (P25100 whole entry): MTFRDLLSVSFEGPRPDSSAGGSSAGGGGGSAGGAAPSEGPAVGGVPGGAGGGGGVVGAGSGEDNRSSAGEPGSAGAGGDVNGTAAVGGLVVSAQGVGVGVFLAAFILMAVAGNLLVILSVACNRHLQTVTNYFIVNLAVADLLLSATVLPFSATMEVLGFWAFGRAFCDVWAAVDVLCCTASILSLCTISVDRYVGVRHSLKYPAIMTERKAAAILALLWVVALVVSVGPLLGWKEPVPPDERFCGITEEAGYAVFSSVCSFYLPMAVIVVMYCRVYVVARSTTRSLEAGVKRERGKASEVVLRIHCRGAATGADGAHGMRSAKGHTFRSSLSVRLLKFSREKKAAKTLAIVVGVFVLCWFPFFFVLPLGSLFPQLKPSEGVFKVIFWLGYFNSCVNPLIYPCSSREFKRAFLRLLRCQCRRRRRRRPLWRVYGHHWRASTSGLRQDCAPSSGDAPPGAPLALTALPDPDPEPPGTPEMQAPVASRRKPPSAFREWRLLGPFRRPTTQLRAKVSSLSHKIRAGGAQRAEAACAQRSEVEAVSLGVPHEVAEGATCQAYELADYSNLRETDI

In the case of `COCCOCCO[C@@H]1[C@@H](OP(=O)(O)O)[C@H](OCCOCCOC)[C@@H](OP(=O)(O)O)[C@@H](OP(=O)(O)O)[C@H]1OP(=O)(O)O` [(OEG2)2-IP4, 4,6-Di-O-(methoxy-diethyleneglycol)-myo-inositol-1,2,3,5-tetrakis(phosphate)], the “% Inhibition” value [1] is reported as -7%, the inhibition at 10 µM [2] is reported as 6% and the inhibition at 10 µM (Muscarinic M2) is reported as 4%. The inhibition at 10 µM (Dopamine D2L) was -10%, the “stability in aqueous solution by 1H- and 31P-NMR” value [3] was “No compound degradation was evident” and the “% Inhibition” value (Glutamate, NMDA, Agonism) was 7%. The inhibition at 10 µM (Cannabinoid CB2) was 12%, the inhibition at 10 µM [4] was 10% and the “protein-bound fraction in healthy human plasma” value ([5]; total measured concentration 2.8 µg/mL (4 µM)) was 58%. The “protein-bound fraction in healthy human plasma” value ([5]; total measured concentration 27.5 µg/mL (39.5 µM)) was 42%, the inhibition at 10 µM [6] was -22% and the inhibition at 10 µM [7] was 5%. For the same compound, the inhibition at 10 µM [8] was 20%.
